We go through one compound from patent publication US12286418B2, “Compounds and methods for treating or preventing bacterial infections” (priority 2019, dated 2025).

Molecules are shown by their SMILES.

Data set [1] relates to E. coli MG1655. The experiment in a line: Accumulation assay in E. coli (LC-MS/MS). It is filed as cell-based. The settings on record: wildtype E. coli MG1655, 10 minutes incubation. The method, then:
For the accumulation assay, the protocol from Richter, et al., 2017, Nature 545:299-304 was followed. An overnight culture of bacteria grown in LB Lennox, was inoculated into fresh media and grown to an OD600 of 0.5-0.6. Cells were pelleted, resuspended in 1× phosphate-buffered saline (PBS) and then incubated with the compound of interest for 10 minutes at 37°. After incubation, the OD600 was recorded to note if compounds affected cell growth and then the cultures were centrifuged down through a 9:1 mixture of silicone oil (viscosity=20 cST) to high temperature silicone oil which was cooled at −80°. Cell pellets were isolated and lysed by 3 cycles of freeze-thawing using liquid nitrogen and a 65° water bath. The cell lysate was isolated from the cell debris (in water and methanol) and then analyzed via mass spectrometry. […] Multiple reaction monitoring (MRM) was used to quantify these compounds. […] The concentrations of these compounds were calculated on the basis of their corresponding standard curves.
To determine the colony forming units (CFU) per mL based on the OD600, the OD600 of E. coli MG1655 culture in LB-Lennox was measured then the culture was diluted and plated to count colonies. Based on this, the CFU per mL for 1 O.D.600 (for MG1655 cells grown in LB-Lennox) was determined to be approximately 2.15×10^8 and this value was used for accumulation calculations. […]

Data set [2] has as its target OXA-48 (Klebsiella pneumoniae, UniProt Q6XEC0). The data set can be described thus: Surface plasmon resonance binding to immobilized 6x-His-OXA-48. Further details: His-tag (N, cleaved yes); made in house; host or cells: E. coli BL21(DE3), pET28a. The settings on record: SPR. The method, then: 6×-His-OXA-48 was capture/amine-coupled on a Ni-NTA Chip at a density of ˜5000 RU. Running buffer was 10 mM HEPES pH 7.4, 150 NaCl, 50 mM NaHCO3, 0.005% Tween-20, 2% DMSO. Concentration gradients of each compound were created from 0-15 μM using OneStep Injections in at least triplicates for meropenem and CDD-97.
Synthon-derivatives were created, without DNA tags, based on high OXA-48 enrichment and minimal NTC enrichment. The activity of these derivatives was assessed using inhibition assays with purified OXA-48. Compounds were tested for the ability to inhibit OXA-48 from hydrolyzing nitrocefin, a chromogenic β-lactam substrate routinely used in β-lactamase inhibition assays. Nitrocefin contains a conjugated ring system that is readily hydrolyzed and produces a visible color shift from yellow to red upon hydrolysis (O'Callaghan, et al., 1972, Antimicrob. Agents Chemother. 1:283-288). The rate of nitrocefin hydrolysis in the presence of a constant amount of OXA-48 and increasing concentrations of a given compound of interest was monitored at 482 nm. These rates were plotted against compound concentration to determine the inhibition constant (Ki) against OXA-48. Compounds with promising activity were also assessed for binding using surface plasmon resonance (SPR). SPR was performed using 6×-His-OXA-48 enzyme that was amine-coupled on a Ni-NTA Chip. Meropenem, which covalently binds and inhibits OXA-48, was used as a positive control.

OXA-48, sequence (Q6XEC0 23-265, looked up): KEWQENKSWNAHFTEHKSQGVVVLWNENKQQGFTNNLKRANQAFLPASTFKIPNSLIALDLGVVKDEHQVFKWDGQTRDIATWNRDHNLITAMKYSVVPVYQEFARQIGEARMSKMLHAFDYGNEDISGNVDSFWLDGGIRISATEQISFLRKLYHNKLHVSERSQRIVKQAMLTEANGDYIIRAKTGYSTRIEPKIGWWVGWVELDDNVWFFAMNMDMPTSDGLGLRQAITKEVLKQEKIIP

Turning to `CCOc1ccccc1N1CCN(c2ncnc(N3CCC(C(=O)O)CC3)n2)CC1` [CDD-97, 1-(4-(4-(2-ethoxyphenyl)piperazin-1-yl)-1,3,5-triazin-2-yl)piperidine-4-carboxylic acid], the “accumulation in cells, fold lower levels compared to tetracycline” value in data set [1] came out at 20 fold. Besides, the “KD fold lower (weaker) than that of Meropenem” value in data set [2] (OXA-48) is given as about 3 fold. Besides, the Kd in data set [2] (immobilized His-OXA-48) turned out to be 1200 ± 4 nM.
